In US11633459B2, “GIP derivatives and uses thereof” (priority 2018, dated 2023):
*1 amine or outer side, *2 acyl side, *3 side chain or, on linkers, in order; H or OH if unused. Where no end group is shown, it is not given here. Side-chain parts run from the residue outwards. [ ]: non-standard residue; d: D form. The star is where a group is joined. C18 diacid = O=C(O)CCCCCCCCCCCCCCCCC(=O)*; γGlu = O=C(O)[C@H](CCC(=O)[*:2])N[*:1]; Nle = CCCC[C@H](N)C(=O)O; AEEA = NCCOCCOCC(=O)O; Aib = CC(C)(N)C(=O)O

Assays:
[1] = Sub-chronic in vivo study in DIO mice: food intake and body weight; set-up: species or system DIO male C57BL/6J mice; details: Tables 6-8, compound 47 2 nmol/kg, GIP derivatives 30 nmol/kg
From the text: (§1) The purpose of this example is to assess the in vivo effect of the GIP derivatives of the present invention alone and in combination with a GLP-1 receptor agonist on food intake, body weight, and glucose tolerance in diet-induced obese (DIO) mice. The GLP-1 receptor agonist used for this example was a semaglutide-like molecule that has the same pharmacological properties as semaglutide, but a slightly different structure. The compound may be synthesised using methods known in the art, e.g. as described by methods of present Example 1 or as described in WO 2006/097537, example 4.
(§2) The animals were treated once daily with the GLP-1 receptor agonist (compound no. 47) and/or a GIP derivative of the present invention exemplified by compound no.'s 5, 25 and 31, to assess weight loss, efficacy and glucose tolerance. Animals and Diet
All animal protocols were approved by an Institutional Animal Care and Use Committee and Ethical Review Committee of Novo Nordisk. Animals were housed according to Novo Nordisk rodent housing standards, and were given ad libitum access to food and water under controlled lighting (12 h:12 h light/dark cycle; lights off 18:00-06:00), temperature (23±2° C.) and relative humidity (50±20%) conditions. […]
Body weight (BW) and food intake were measured immediately prior to dosing each day. […]

[2] = Sub-chronic in vivo study in DIO mice: IPGTT (intraperitoneal glucose tolerance test); set-up: species or system DIO male C57BL/6J mice; details: Tables 6-8, compound 47 2 nmol/kg, GIP derivatives 30 nmol/kg
From the text: as §1, §2
All animal protocols were approved by an Institutional Animal Care and Use Committee and Ethical Review Committee of Novo Nordisk. […]
On the day of the glucose tolerance test (day 15), animals were fasted for 4 h. […] Tail blood glucose levels were measured and mice were injected (t=0) with an intra-peritoneal (i.p.) glucose load of 2 g/kg (200 mg/ml glucose solution, dose volume 10 ml/kg). Tail blood glucose levels were measured at times 0, 15, 30, 60, 90, 120 minutes following the i.p. glucose load. […]

[3] = Dynamic Light Scattering Stability Index (DLS-SI); format: physicochemical; details: concentration only 5 μM instead of 250 μM, pH 7.4, 25° C.
[4] = Chemical stability: HMWP formation by SEC-MS; format: physicochemical; details: 250 μM, pH 7.4, 37° C., 4 weeks
Method: The aim of this study is to determine the chemical stability of GIP derivative compositions. As a measure of stability of the GIP derivative composition, the formation of high molecular weight peptide formation (% HMWP) as a function of time was analysed by size-exclusion chromatography (SEC-MS). Further, the purity loss of the GIP derivative compositions was measured by LCMS. Samples for chemical stability assays were freshly prepared before each assay. […] The pH of the sample was adjusted to the desired value using appropriate amounts of concentrated NaOH and HCl. […] Formation of covalent oligomers (HMWPs) was analysed and identified by a SEC-MS method. […] The LC system was coupled to both a TUV detector operated at 215 nm, 10 Hz and a high resolution QToF mass spectrometer from Waters (Synapt G2S) operated in positive ion mode and m/z range of 100 to 4000 with normal resolution setting. Lock mass correction against Leu-Enkephalin was done every 31 sec. Spectra were processed in MassLynx version 4.1 and MaxEnt deconvoluted.

human GIP receptor = biological target: T1, human GIP receptor (Homo sapiens, UniProt P48546); assay: In vitro potency, CRE luciferase reporter gene assay, whole BHK cells expressing human GIP receptor; format: cell-based; details: 0.2% HSA
T1 construct: expressed in transfected cells; host or cells: BHK cells (parent line BHKTS13), clone BHK CRE luc2P hGIPR clone #5
T1 sequence (P48546 22-466): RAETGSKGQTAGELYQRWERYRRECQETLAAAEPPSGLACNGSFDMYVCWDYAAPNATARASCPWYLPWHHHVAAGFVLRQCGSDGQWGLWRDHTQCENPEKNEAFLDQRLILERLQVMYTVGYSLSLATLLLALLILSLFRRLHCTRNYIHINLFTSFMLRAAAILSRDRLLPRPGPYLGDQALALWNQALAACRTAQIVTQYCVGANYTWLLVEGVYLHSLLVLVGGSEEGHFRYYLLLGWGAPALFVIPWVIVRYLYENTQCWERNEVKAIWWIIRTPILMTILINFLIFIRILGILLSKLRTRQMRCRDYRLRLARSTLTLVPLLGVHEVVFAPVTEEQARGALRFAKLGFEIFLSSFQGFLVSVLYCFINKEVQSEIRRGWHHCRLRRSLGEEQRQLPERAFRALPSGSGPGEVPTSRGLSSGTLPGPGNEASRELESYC
Method: (§3) In Vitro Potency (CRE Luciferase; Whole Cells)
(§4) The in vitro potency is the measure of human GIP, GLP-1 or glucagon receptor activation, respectively, in a whole cell assay.
(§5) In vitro potency was determined by measuring the response of the human GIP, GLP-1 or glucagon receptor in a reporter gene assay in individual cell lines. […] When the respective receptor is activated it results in the production of cAMP, which in turn results in the luciferase protein being expressed. When assay incubation is completed the luciferase substrate (luciferin) is added and the enzyme converts luciferin to oxyluciferin to produce bioluminescence. The luminescence is measured as the readout for the assay.
(§6) The cells were derived from a clone containing the CRE luciferase element and were established by further transfection with the respective receptor to obtain the current clone.
(§7) The cells were cultured at 5% CO2 in Cell Culture Medium. They were aliquoted and stored in liquid nitrogen. The cells were kept in passage and were seeded out the day before each assay.
(§8) The Assay Buffer consisted of 1% ovalbumin and 0.1% Pluronic F-68 in Assay Medium with the addition of human serum albumin at twice the indicated concentrations.
(§9) 1) Cells were plated at 5000 cells/well and incubated overnight.
(§10) 2) Cells were washed three times in PBS.
(§11) 3) Assay Medium (50 μl aliquot) with or without serum albumin was added to each well in the assay plate.
(§12) 4) Stocks of the test compounds and reference compounds were diluted to a concentration of 0.2 μM in Assay Buffer. […] 8) The cells were washed three times with PBS plus some liquid in each well. 9) A 100 μl aliquot of steadylite plus reagent was added to each well of the assay plate (reagent was light sensitive). 10) Each assay plate was covered with aluminum foil to protect it from light and shaken for 30 min at room temperature. 11) Each assay plate was read in a microtiter plate reader. Calculations and Results
The data from the microtiter plate reader was transferred to GraphPad Prism software. The software performs a non-linear regression (log(agonist) vs response).
A minimum of two replicates was measured for each sample. The reported values are averages of the replicates.

human GLP-1 receptor = biological target: T2, human GLP-1 receptor (Homo sapiens, UniProt P43220); assay: In vitro potency, CRE luciferase reporter gene assay, whole BHK cells expressing human GLP-1 receptor; format: cell-based; details: 0.2% HSA
T2 construct: expressed in transfected cells; host or cells: BHK cells (parent line BHKTS13), clone BHK CRE luc2P hGLP-1R clone #6
Method: as §3, §4, §5, §6, §7, §8, §9, §10, §11, §12
(§13) The data from the microtiter plate reader was transferred to GraphPad Prism software. […]
(§14) A minimum of two replicates was measured for each sample. […]

human glucagon receptor = biological target: T3, human glucagon receptor (Homo sapiens, UniProt P47871); assay: In vitro potency, CRE luciferase reporter gene assay, whole BHK cells expressing human glucagon receptor; format: cell-based; details: 0.2% HSA
T3 construct: expressed in transfected cells; host or cells: BHK cells (parent line BHKTS13), clone BHK CRE luc2P hGCGR clone #18
Method: as §3, §4, §5, §6, §7, §8, §9, §10, §11, §12, §13, §14

T2 sequence (P43220 24-463): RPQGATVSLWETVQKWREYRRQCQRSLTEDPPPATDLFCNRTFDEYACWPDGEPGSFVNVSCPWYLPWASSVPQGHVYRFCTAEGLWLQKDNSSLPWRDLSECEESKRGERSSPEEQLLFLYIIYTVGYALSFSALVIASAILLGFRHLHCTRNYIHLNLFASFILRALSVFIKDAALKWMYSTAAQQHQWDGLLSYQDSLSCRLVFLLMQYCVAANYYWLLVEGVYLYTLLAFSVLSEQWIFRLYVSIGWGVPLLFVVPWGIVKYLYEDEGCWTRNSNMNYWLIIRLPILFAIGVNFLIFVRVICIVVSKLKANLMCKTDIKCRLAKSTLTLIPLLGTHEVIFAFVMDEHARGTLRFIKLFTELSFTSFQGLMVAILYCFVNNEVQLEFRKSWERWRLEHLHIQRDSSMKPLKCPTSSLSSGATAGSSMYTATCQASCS
T3 sequence (P47871 26-477): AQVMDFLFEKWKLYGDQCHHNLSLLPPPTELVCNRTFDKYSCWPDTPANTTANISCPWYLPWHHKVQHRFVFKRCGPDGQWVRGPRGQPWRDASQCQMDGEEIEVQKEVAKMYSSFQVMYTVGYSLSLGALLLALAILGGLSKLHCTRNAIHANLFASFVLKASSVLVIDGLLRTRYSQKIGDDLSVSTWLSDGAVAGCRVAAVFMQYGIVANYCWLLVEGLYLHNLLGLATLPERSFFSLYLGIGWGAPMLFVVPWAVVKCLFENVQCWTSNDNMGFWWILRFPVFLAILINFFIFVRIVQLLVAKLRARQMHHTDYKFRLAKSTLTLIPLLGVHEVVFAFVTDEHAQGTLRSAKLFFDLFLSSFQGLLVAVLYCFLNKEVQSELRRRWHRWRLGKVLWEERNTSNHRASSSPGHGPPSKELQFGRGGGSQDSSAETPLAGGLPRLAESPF

Compound | HMWP formation (%/month) [4] [%/month] | effect on food intake and body weight (in words) [1] | effect on glucose tolerance (in words) [2] | other results
N{1}-acetyl,N{Epsilon-24}-[(4S)-4-carboxy-4-[[(4S)-4-carboxy-4-[[(4S)-4-carboxy-4-[[4-[(19-carboxynonadecanoylamino)methyl]cyclohexanecarbonyl]amino]butanoyl]-amino]butanoyl]amino]butanoyl]-[D-Tyr1,Nle14,Arg18,Aib20,Lys24]-hGIP(1-31) [Compound 25] |  | minor effect on food intake | improved glucose tolerance | 
N^6,26-{18-[N-(17-carboxyheptadecanoyl)-D-γ-glutamyl]-10-oxo-3,6,12,15-tetraoxa-9,18-diazaoctadecanoyl}-[8-(2-amino-2-propanoic acid), 34-L-arginine]human glucagon-like peptide 1(7-37) [Compound 47, reference compound] |  | induced a reduction in food intake that resulted in body weight loss | improvement in glucose tolerance | 
Y[Aib]EGTFISDYSIA[Nle]DKIHQQDFVK([AEEA-AEEA-γGlu-C18 diacid])WLLAQKGKEDDWKHNITQ [Compound 36, N{Epsilon-24}-[2-[2-[2-[[2-[2-[2-[[(4S)-4-carboxy-4-(17-carboxyheptadecanoylamino)butanoyl]amino]ethoxy]ethoxy]acetyl]amino]ethoxy]ethoxy]acetyl]-[Aib2,Nle14,Lys24,Glu33,Asp34]-hGIP] |  |  |  | EC50 (human GIP receptor): 0.00597 nM; EC50 (human GLP-1 receptor): > 100 nM; EC50 (human glucagon receptor): > 100 nM

Continued, in another order:

HMWP formation (%/month) [4] [%/month] | Compound | effect on food intake and body weight (in words) [1] | effect on glucose tolerance (in words) [2] | other results
0.15 | CC[C@H](C)[C@H](NC(=O)[C@H](CO)NC(=O)[C@H](Cc1ccc(O)cc1)NC(=O)[C@H](CC(=O)O)NC(=O)[C@H](CO)NC(=O)[C@@H](NC(=O)[C@H](Cc1ccccc1)NC(=O)[C@@H](NC(=O)CNC(=O)[C@H](CCC(=O)O)NC(=O)[C@H](C)NC(=O)[C@@H](N)Cc1ccc(O)cc1)[C@@H](C)O)[C@@H](C)CC)C(=O)N[C@@H](C)C(=O)N[C@@H](CCSC)C(=O)N[C@@H](CC(=O)O)C(=O)N[C@@H](CCCCN)C(=O)N[C@H](C(=O)N[C@@H](Cc1c[nH]cn1)C(=O)N[C@@H](CCC(N)=O)C(=O)N[C@@H](CCC(N)=O)C(=O)N[C@@H](CC(=O)O)C(=O)N[C@@H](Cc1ccccc1)C(=O)N[C@H](C(=O)N[C@@H](CC(N)=O)C(=O)N[C@@H](Cc1c[nH]c2ccccc12)C(=O)N[C@@H](CC(C)C)C(=O)N[C@@H](CC(C)C)C(=O)N[C@@H](C)C(=O)N[C@@H](CCC(N)=O)C(=O)N[C@@H](CCCCN)C(=O)NCC(=O)O)C(C)C)[C@@H](C)CC [hGIP(1-31)] |  |  | DLS-SI precipitates [3]: formation of large aggregates became visible as precipitation
2.0 | CC[C@H](C)[C@H](NC(=O)[C@H](CO)NC(=O)[C@H](Cc1ccc(O)cc1)NC(=O)[C@H](CC(=O)O)NC(=O)[C@H](CO)NC(=O)[C@@H](NC(=O)[C@H](Cc1ccccc1)NC(=O)[C@@H](NC(=O)CNC(=O)[C@H](CCC(=O)O)NC(=O)[C@H](C)NC(=O)[C@@H](N)Cc1ccc(O)cc1)[C@@H](C)O)[C@@H](C)CC)C(=O)N[C@@H](C)C(=O)N[C@@H](CCSC)C(=O)N[C@@H](CC(=O)O)C(=O)N[C@@H](CCCCN)C(=O)N[C@H](C(=O)N[C@@H](Cc1c[nH]cn1)C(=O)N[C@@H](CCC(N)=O)C(=O)N[C@@H](CCC(N)=O)C(=O)N[C@@H](CC(=O)O)C(=O)N[C@@H](Cc1ccccc1)C(=O)N[C@H](C(=O)N[C@@H](CC(N)=O)C(=O)N[C@@H](Cc1c[nH]c2ccccc12)C(=O)N[C@@H](CC(C)C)C(=O)N[C@@H](CC(C)C)C(=O)N[C@@H](C)C(=O)N[C@@H](CCC(N)=O)C(=O)N[C@@H](CCCCN)C(=O)NCC(=O)N[C@@H](CCCCN)C(=O)N[C@@H](CCCCN)C(=O)N[C@@H](CC(N)=O)C(=O)N[C@@H](CC(=O)O)C(=O)N[C@@H](Cc1c[nH]c2ccccc12)C(=O)N[C@@H](CCCCN)C(=O)N[C@@H](Cc1c[nH]cn1)C(=O)N[C@@H](CC(N)=O)C(=O)N[C@H](C(=O)N[C@H](C(=O)N[C@@H](CCC(N)=O)C(=O)O)[C@@H](C)O)[C@@H](C)CC)C(C)C)[C@@H](C)CC [hGIP(1-42)] |  |  | 
